From publication PMC9227077, “Prediction Models for Brain Distribution of Drugs Based on Biomimetic Chromatographic Data” (Molecules, 2022)
Read-outs that look alike come from different tables or passages of the source.

What was measured:
[1] = Unbound fraction in brain (fu,brain), brain homogenate method; conditions: Kb from literature fu,brain
From the text: However, Kp,uu,brain can be derived from Kp,brain by combining the unbound fraction of the drug in the plasma (fu,p) and in the brain (fu,brain) or the unbound brain volume of distribution, Vu,brain [7]. […] The relevant equations are included in Section 3. Evidently, fu,p is obtained by standard methods for plasma protein binding.
Experimentally determined Kp,brain values for 42 compounds were obtained from the literature and were converted to logBB. They preferably referred to rat studies in order to achieve homogeneity in the data. Experimental fu,brain values were available from the literature for 39 compounds in the dataset. When more than one value was available, the average was calculated. Most values were determined on rats.
The decimal logarithm of Kb, logKb, was used for the development of the models.

[2] = parameters: method as in ref 23, 24, 27, 29, 45 (a number printed in a supplementary file, which may have a reference list of its own: not looked up in the article's list); conditions: 100% aqueous mobile phase, previously obtained in authors' laboratory, cited from earlier work
human serum albumin = system: human serum albumin; parameters: method as in ref 45 (a number printed in a supplementary file, which may have a reference list of its own: not looked up in the article's list); conditions: cited from earlier work
[3] = cited from earlier work
[4] = most values in rats, average if more than one value; cited from earlier work
α1 acid glycoprotein = system: α1 acid glycoprotein; parameters: method as in ref 23, 24, 27, 29, 45 (a number printed in a supplementary file, which may have a reference list of its own: not looked up in the article's list); conditions: pH=7.4, 100% aqueous mobile phase; previously obtained in authors' laboratory; cited from earlier work
[5] = cited from earlier work; for logBB exper.: literature Kp,brain converted to logBB; for Kp,brain: total brain/total plasma, preferably rat studies
[6] = brain slice method; cited from earlier work
[7] = rat brain tissue; cited from earlier work
[8] = pH=7.4, isocratic, 10% acetonitrile, available for 37 compounds, remaining calculated by equation
[9] = octanol-water partition coefficient, experimental
[10] = pH=5.0, octanol-water, experimental
[11] = pH=7.4, octanol-water, experimental

SMILES | logKb exper. [1] | logkw IAM ([2]; pH=5.0, PBS) | logkw IAM ([2]; pH=7.4, PBS) | logk10,HSA (human serum albumin; [8]) | logP [3, 9] | logD [3, 10] | logD [3, 11] | fu,brain [4] | logkwAGP (α1 acid glycoprotein) | logBB exper. [5] | Kp,brain [5] | Vu,brain [6] | logP [3] | Kp,uu,brain [7] | logk10,HSA (human serum albumin)
CCCC(C)(COC(N)=O)COC(N)=O [Meprobamate] | 0.245 | 0.54 | 0.72 | -0.36 | 0.70 | 1.07 | 0.70 | 0.638 |  |  |  |  |  |  | 
CN(C)CCC=C1c2ccccc2CCc2ccccc21 [Amitriptyline] |  | 2.06 | 2.99 | 0.89 |  | 1.13 | 2.50 | 0.010 | 2.40 | 0.98 | 9.55 | 310.00 mL/g brain |  |  | 
CC(C)NCC(O)COc1cccc2ccccc12 (centres unmarked) [Propranolol] |  | 1.63 | 2.33 | 0.48 |  |  |  | 0.025 | 2.20 | 0.64 | 4.37 | 112.00 mL/g brain |  |  | 
CSc1ccc2c(c1)N(CCC1CCCCN1C)c1ccccc1S2 (centres unmarked) [Thioridazine] |  |  |  | 1.59 | 5.90 | 3.06 | 3.34 | 0.001 |  | 0.24 | 1.74 | 3333.00 mL/g brain |  |  | 
C=CCOc1ccccc1OCC(O)CNC(C)C (centres unmarked) [Oxprenolol] |  | 0.87 | 1.47 | -0.25 |  | -0.61 | 0.32 | 0.280 |  | 0.025 | 1.06 | 11.80 mL/g brain |  |  | 
CN(C)C(=O)Oc1cccc([N+](C)(C)C)c1 [Neostigmine] | 1.270 | -0.08 | 0.37 | -1.91 | -2.16 | -2.16 | -2.16 | 0.950 |  |  |  | 3.20 mL/g brain |  |  | 
CNC(=C[N+](=O)[O-])NCCSCc1ccc(CN(C)C)o1 [Ranitidine] | 1.317 |  | 0.61 | -0.41 |  | -3.37 | -0.53 |  |  | -1.23 | 0.06 |  | 1.28 |  | 
CCn1cc(C(=O)O)c(=O)c2cc(F)c(N3CCNCC3)cc21 [Norfloxacin] | 0.139 |  |  | -0.92 | -1.03 | -1.17 | -1.03 | 0.580 |  | -1.15 | 0.07 | 2.90 mL/g brain |  | 0.05 | 
CC(=O)Nc1ccc(O)cc1 [Acetaminophen] | 0.692 | -0.06 | 0.18 | -0.56 |  |  |  |  | 0.10 | -0.31 | 0.49 |  |  | 0.18 | 
COc1ccc2c(c1)c(CC(=O)O)c(C)n2C(=O)c1ccc(Cl)cc1 [Indomethacin] |  | 2.93 | 2.41 |  |  | 2.95 |  | 0.042 | 1.59 | -1.26 | 0.05 | 14.00 mL/g brain |  |  | 1.76
O=C1NC(=O)C(c2ccccc2)(c2ccccc2)N1 [Phenytoin] |  | 1.94 | 1.75 | 0.44 | 2.24 | 1.95 | 2.17 | 0.121 | 1.60 | -0.04 | 0.91 |  |  | 0.45 | 
Cc1ncc2n1-c1ccc(Cl)cc1C(c1ccccc1F)=NC2 [Midazolam] |  | 1.93 | 2.77 | 0.99 |  | 1.95 | 3.27 | 0.026 |  | 0.36 | 2.29 | 29.00 mL/g brain |  | 2.19 | 
O=C(O)c1ccccc1O [Salicylic acid] | 0.230 | 0.46 | -0.08 |  |  |  |  | 0.630 |  |  |  | 1.00 mL/g brain |  |  | 
CN(C)C(=N)N=C(N)N [Metformin] | 1.270 |  | -0.37 |  |  |  |  |  |  |  |  | 10.00 mL/g brain |  |  | 
